Patent US7560468B2, “Substituted 1,4,8-triazaspiro[4,5]decan-2-one compounds” (Gruenenthal GmbH, priority 2004, dated 2009)

Molecular target: T1, 5-HT transporter (Rattus norvegicus, UniProt P31652)
T1 construct: from tissue; host or cells: rat brain synaptosomes (marrow/medulla and pons), P2 fraction
Experiment: Inhibition of 5-HT uptake in synaptosomes
Format: biochemical
Conditions: rat, 1 μM

T1 sequence (P31652 whole entry): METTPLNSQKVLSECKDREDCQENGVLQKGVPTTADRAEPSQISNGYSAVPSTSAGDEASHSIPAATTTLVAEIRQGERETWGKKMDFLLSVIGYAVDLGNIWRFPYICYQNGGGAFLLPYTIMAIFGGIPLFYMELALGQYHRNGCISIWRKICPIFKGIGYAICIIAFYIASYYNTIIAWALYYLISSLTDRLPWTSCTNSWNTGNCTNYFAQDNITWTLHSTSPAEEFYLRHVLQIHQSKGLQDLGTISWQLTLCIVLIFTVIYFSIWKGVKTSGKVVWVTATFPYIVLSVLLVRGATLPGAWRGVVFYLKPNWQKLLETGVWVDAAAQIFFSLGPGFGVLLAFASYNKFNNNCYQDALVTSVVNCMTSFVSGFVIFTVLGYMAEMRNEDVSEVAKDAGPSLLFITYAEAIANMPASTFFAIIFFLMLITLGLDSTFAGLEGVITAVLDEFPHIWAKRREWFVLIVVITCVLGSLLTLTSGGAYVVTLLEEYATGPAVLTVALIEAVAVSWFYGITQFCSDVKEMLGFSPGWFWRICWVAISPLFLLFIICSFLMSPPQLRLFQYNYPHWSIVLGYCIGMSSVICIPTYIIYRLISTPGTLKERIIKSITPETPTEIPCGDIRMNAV

Point of comparison: CCCCN1C(=O)C(CCSC)NC12CCN(S(=O)(=O)c1ccc(C(C)=O)cc1)CC2 (stereo not drawn) [Example 13, 8-(4-Acetylbenzolsulfonyl)-1-butyl-3-(2-methylsulfanylethyl)-1,4,8-triazaspiro[4,5]decan-2-one], “Uptake_5-HT, rat, 1 μM, % inhibition” value 56%. Against it:
- CC(C)C1NC2(CCN(S(=O)(=O)c3ccc([N+](=O)[O-])cc3)CC2)NC1=O (stereo not drawn) [Example 1, 3-Isopropyl-8-(4-nitrobenzolsulfonyl)-1,4,8-triazaspiro[4,5]decan-2-one] — lower, 55%
- CCCCN1C(=O)C(CCSC)NC12CCN(S(=O)(=O)c1ccc(OC)c(OC)c1)CC2 (stereo not drawn) [Example 30, 1-Butyl-8-(3,4-dimethoxy-benzolsulfonyl)-3-(2-methylsulfanylethyl)-1,4,8-triazaspiro[4,5]decan-2-one] — lower, 53%

Same assay, conditions: read-out: 5-HT uptake: Km; characteristic data of the 5-HT transporter

With NCCc1c[nH]c2ccc(O)cc12 [Example 5-HT, serotonin, reference compound] the Km was 0.084 ± 0.011 µM.

Same assay, conditions: read-out: Uptake_5-HT, rat, 1 μM, % inhibition

Point of comparison: CCCCN1C(=O)C(C(C)C)NC12CCN(S(=O)(=O)c1ccccc1C(=O)OC)CC2 (stereo not drawn) [Example 15, Methyl 2-(1-butyl-3-isopropyl-2-oxo-1,4,8-triazaspiro[4,5]decan-8-sulfonyl)benzoate], inhibition at 1 µM 44%. Against it:
- CCCCN1C(=O)C(CCSC)NC12CCN(S(=O)(=O)c1ccc(Cl)s1)CC2 (stereo not drawn) [Example 12, 1-Butyl-8-(5-chlorothiophen-2-sulfonyl)-3-(2-methylsulfanylethyl)-1,4,8-triazaspiro[4,5]decan-2-one] — higher, 58%
- CCS(=O)(=O)N1CCC2(CC1)NC(CCSC)C(=O)N2Cc1ccccc1 (stereo not drawn) [Example 32, 1-Benzyl-8-ethanesulfonyl-3-(2-methylsulfanylethyl)-1,4,8-triazaspiro[4,5]decan-2-one] — higher, 64%

System: batrachotoxin (BTX) binding site of the sodium channel
Experiment: Affinity to the batrachotoxin (BTX) binding site of the sodium channel
Conditions: rat cerebrocortex synaptosomes, [3H]-batrachotoxinin A20 α-benzoate 10 nM; test concentration not given

Point of comparison: C=CCNC(=S)N1CCC2(CC1)NC(C(C)C)C(=O)N2Cc1ccc(C(=O)OC)cc1 (stereo not drawn) [Example 126, Methyl 4-(8-allylthiocarbamoyl-3-isopropyl-2-oxo-1,4,8-triazaspiro[4,5]dec-1-ylmethyl)benzoate], “BTX Inhibition” value 37. Against it:
- 1-Allyl-3-isopropyl-2-oxo-1,4,8-triazaspiro[4,5]decan-8-thiocarboxylic acid (3,5-dichlorobenzol)amide [Example 180] — higher, 54
- 1-Butyl-3-isopropyl-2-oxo-1,4,8-triazaspiro[4,5]decan-8-thiocarboxylic acid (3-chlorobenzol)amide [Example 142] — higher, 63
- 1-Methyl-3-(2-methylsulfanylethyl)-2-oxo-1,4,8-triazaspiro[4,5]decan-8-thiocarboxylic acid (3-trifluoromethylbenzol)amide [Example 194] — lower, 36
- CC(C)C1NC2(CCN(S(=O)(=O)c3ccc(F)c(Cl)c3)CC2)N(CCOc2ccccc2)C1=O (stereo not drawn) [Example 17, 8-(3-Chloro-4-fluorobenzolsulfonyl)-3-isopropyl-1-(2-phenoxy-ethyl)-1,4,8-triazaspiro[4,5]decan-2-one] — higher, 41
- CCCCN1C(=O)C(C(C)C)NC12CCN(S(=O)(=O)c1ccc(F)cc1F)CC2 (stereo not drawn) [Example 19, 1-Butyl-8-(2,4-difluorobenzolsulfonyl)-3-isopropyl-1,4,8-triazaspiro[4,5]decan-2-one] — lower, 30
- Cc1ccc(S(=O)(=O)N2CCC3(CC2)NC(C(C)C)C(=O)N3CCOc2ccccc2)cc1 (stereo not drawn) [Example 21, 3-Isopropyl-1-(2-phenoxy-ethyl)-8-(toluol-4-sulfonyl)-1,4,8-triazaspiro[4,5]decan-2-one] — higher, 54
- Cc1cc(S(=O)(=O)N2CCC3(CC2)NC(CC(C)C)C(=O)N3Cc2ccccc2)c(C)cc1Cl (stereo not drawn) [Example 27, 1-Benzyl-8-(4-chloro-2,5-dimethylbenzolsulfonyl)-3-isobutyl-1,4,8-triazaspiro[4,5]decan-2-one] — higher, 59
- COc1ccc(S(=O)(=O)N2CCC3(CC2)NCC(=O)N3Cc2ccccc2F)cc1 [Example 64, 1-(2-Fluorobenzyl)-8-(4-methoxy-benzolsulfonyl)-1,4,8-triazaspiro[4,5]decan-2-one] — higher, 42
- C=CCN1C(=O)C(C(C)C)NC12CCN(S(=O)(=O)c1c(C)cc(C)cc1C)CC2 (stereo not drawn) [Example 70, 1-Allyl-3-isopropyl-8-(2,4,6-trimethylbenzolsulfonyl)-1,4,8-triazaspiro[4,5]decan-2-one] — higher, 60
- C=CCN1C(=O)C(CCSC)NC12CCN(S(=O)(=O)c1ccc3c(c1)CN(C(=O)C(F)(F)F)CC3)CC2 (stereo not drawn) [Example 78, 1-Allyl-3-(2-methylsulfanylethyl)-8-[2-(2,2,2-trifluoroacetyl)-1,2,3,4-tetrahydroisoquinolin-7-sulfonyl]-1,4,8-triazaspiro[4,5]decan-2-one] — lower, 32
- COc1ccc(CNC(=S)N2CCC3(CC2)NC(CCSC)C(=O)N3C)cc1 (stereo not drawn) [Example 111, 1-Methyl-3-(2-methylsulfanylethyl)-2-oxo-1,4,8-triazaspiro[4,5]decan-8-thiocarboxylic acid 4-methoxy-benzylamide] — higher, 51
- CN1C(=O)C(Cc2ccccc2)NC12CCN(C(=S)NCc1cc(F)ccc1F)CC2 (stereo not drawn) [Example 118, 3-Benzyl-1-methyl-2-oxo-1,4,8-triazaspiro[4,5]decan-8-thiocarboxylic acid (2,5-difluorobenzol)amide] — higher, 42
- CCCCN1C(=O)C(CCSC)NC12CCN(C(=S)NCc1ccccc1OC)CC2 (stereo not drawn) [Example 127, 1-Butyl-3-(2-methylsulfanylethyl)-2-oxo-1,4,8-triazaspiro[4,5]decan-8-thiocarboxylic acid (2-methoxy-benzol)amide] — higher, 44
- CSCCC1NC2(CCN(C(=S)NCc3ccc(Cl)cc3)CC2)N(C)C1=O (stereo not drawn) [Example 133, 1-Methyl-3-(2-methylsulfanylethyl)-2-oxo-1,4,8-triazaspiro[4,5]decan-8-thiocarboxylic acid (4-chlorobenzol)amide] — higher, 44
- CSCCC1NC2(CCN(C(=S)NCc3ccc(F)cc3)CC2)N(C)C1=O (stereo not drawn) [Example 134, 1-Methyl-3-(2-methylsulfanylethyl)-2-oxo-1,4,8-triazaspiro[4,5]decan-8-thiocarboxylic acid 4-fluorobenzylamide] — higher, 50
- CSCCC1NC2(CCN(C(=S)NCc3cc(F)ccc3F)CC2)N(C)C1=O (stereo not drawn) [Example 138, 1-Methyl-3-(2-methylsulfanylethyl)-2-oxo-1,4,8-triazaspiro[4,5]decan-8-thiocarboxylic acid (2,5-difluorobenzol)amide] — lower, 34
- CC(=O)c1cccc(NC(=S)N2CCC3(CC2)NC(CC(C)C)C(=O)N3Cc2ccccc2C#N)c1 (stereo not drawn) [Example 141, 1-(2-Cyanobenzyl)-3-isobutyl-2-oxo-1,4,8-triazaspiro[4,5]decan-8-thiocarboxylic acid (3-acetylbenzol)amide] — higher, 50
- CSCCC1NC2(CCN(C(=S)NCc3ccc(Cl)cc3)CC2)N(Cc2cccc(C#N)c2)C1=O (stereo not drawn) [Example 185, 1-(3-Cyanobenzyl)-3-(2-methylsulfanylethyl)-2-oxo-1,4,8-triazaspiro[4,5]decan-8-thiocarboxylic acid 4-chlorobenzylamide] — higher, 72
- C#CCN1C(=O)C(CC(C)C)NC12CCN(C(=S)Nc1c(Cl)cccc1Cl)CC2 (stereo not drawn) [Example 190, 3-Isobutyl-2-oxo-1-prop-2-ynyl-1,4,8-triazaspiro[4,5]decan-8-thiocarboxylic acid (2,6-dichlorobenzol)amide] — higher, 53
- COC(=O)c1ccc(CN2C(=O)C(C(C)C)NC23CCN(C(=S)NCc2ccc(Cl)cc2)CC3)cc1 (stereo not drawn) [Example 191, Methyl 4-[8-(4-chlorobenzylthiocarbamoyl)-3-isopropyl-2-oxo-1,4,8-triazaspiro[4,5]dec-1-ylmethyl]-benzoate] — higher, 74
- CSCCC1NC2(CCN(C(=S)NC(C)c3ccccc3)CC2)N(Cc2ccc(F)cc2)C1=O (stereo not drawn) [Example 196, 1-(4-Fluorobenzyl)-3-(2-methylsulfanylethyl)-2-oxo-1,4,8-triazaspiro[4,5]decan-8-thiocarboxylic acid (1-benzol-ethyl)amide] — higher, 70
- O=C1C(Cc2ccccc2)NC2(CCN(C(=S)NCc3ccc(Cl)cc3)CC2)N1Cc1ccccc1F (stereo not drawn) [Example 197, 3-Benzyl-1-(2-fluorobenzyl)-2-oxo-1,4,8-triazaspiro[4,5]decan-8-thiocarboxylic acid 4-chlorobenzylamide] — higher, 77
- CC(C)C1NC2(CCN(C(=S)NCc3ccccc3)CC2)N(Cc2ccccc2)C1=O (stereo not drawn) [Example 199, 1-Benzyl-3-isopropyl-2-oxo-1,4,8-triazaspiro[4,5]decan-8-thiocarboxylic acid benzylamide] — higher, 44
- C=CCN1C(=O)C(C(C)C)NC12CCN(C(=O)Nc1cc(F)ccc1F)CC2 (stereo not drawn) [Example 209, 1-Allyl-3-isopropyl-2-oxo-1,4,8-triazaspiro[4,5]decan-8-carboxylic acid (2,5-difluorobenzol)amide] — lower, 31
- CC(C)CC1NC2(CCN(C(=O)Nc3cc(F)ccc3F)CC2)N(Cc2ccccc2C#N)C1=O (stereo not drawn) [Example 218, 1-(2-Cyanobenzyl)-3-isobutyl-2-oxo-1,4,8-triazaspiro[4,5]decan-8-carboxylic acid (2,5-difluorobenzol)amide] — higher, 40
- CSCCC1NC2(CCN(C(=O)NCc3ccc(Cl)c(Cl)c3)CC2)N(Cc2ccc(F)cc2)C1=O (stereo not drawn) [Example 228, 1-(4-Fluorobenzyl)-3-(2-methylsulfanylethyl)-2-oxo-1,4,8-triazaspiro[4,5]decan-8-carboxylic acid 3,4-dichlorobenzylamide] — higher, 87
- COC(=O)c1ccc(CN2C(=O)C(C(C)C)NC23CCN(C(=O)NCc2ccc(Cl)c(Cl)c2)CC3)cc1 (stereo not drawn) [Example 232, Methyl 4-[8-(3,4-dichlorobenzylcarbamoyl)-3-isopropyl-2-oxo-1,4,8-triazaspiro[4,5]dec-1-ylmethyl]-benzoate] — higher, 55
- Methyl 4-[8-(2,6-dichlorobenzolthiocarbamoyl)-3-isopropyl-2-oxo-1,4,8-triazaspiro[4,5]dec-1-ylmethyl]-benzoate [Example 135] — higher, 38
